Experimental findings from patent US20260297060A1, “COMPOUNDS FOR THE DEGRADATION OF MUTANT BRAF” (C4 THERAPEUTICS, INC., priority 2023, published 2026) are described below.

SMILES strings stand for the structures. Where two headings read alike, the source gives them in different places.

One assay concerns the target T1, BRAF V600E (Homo sapiens, UniProt P15056+Q96SW2, V600E).
T1 construct: knock-in of the HiBiT tag to the endogenous BRAF V600E locus; host or cells: A375.10 (A375 clonal line, CRISPR HiBiT knock-in at the endogenous BRAF V600E locus)
Description: BRAF V600E HiBiT Degradation Assay. The settings on record: A375.10 cells, BRAF V600E, 2 hours. It counts as cell-based. The method in brief:
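Endogenous HiBiT knock-in on BRAF V600E in A375 cells (clone A375.10); 11-point half-log series, top 10 μM, 2, 6 or 24 h at 37° C. Lytic HiBiT luminescence, background-subtracted, normalized to DMSO; 4-parameter fit gives DC50, Emax (residual protein) and IP (inflection point).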

The test system of another assay is A375-NRAS^Q61K cells. Description: CTGlo Cell Viability Assay, A375-NRAS^Q61K (A375.11) cells, 96 hours. It counts as cell-based, human. As to conditions: A375.11 (A375-NRAS^Q61K) cells. The method in brief:
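Viability as CellTiter-Glo ATP luminescence after 96 h compound exposure at 37 °C; A375.11 (BRAF V600E/NRAS Q61K) cells at 250/well, top final concentration 10 μM in half-log steps. Signal was background-corrected and set relative to DMSO controls. A 4-parameter logistic fit gave GI50 (50% crossing) and Emax.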

Setting [1] is: inflection point, read-out: HiBiT-Degradation A375.10 BRAF 2 hours IP.
Setting [2] is: read-out: HiBiT-Degradation A375.10 BRAF 2 hours DC50.

T1 sequence (P15056 whole entry V600E): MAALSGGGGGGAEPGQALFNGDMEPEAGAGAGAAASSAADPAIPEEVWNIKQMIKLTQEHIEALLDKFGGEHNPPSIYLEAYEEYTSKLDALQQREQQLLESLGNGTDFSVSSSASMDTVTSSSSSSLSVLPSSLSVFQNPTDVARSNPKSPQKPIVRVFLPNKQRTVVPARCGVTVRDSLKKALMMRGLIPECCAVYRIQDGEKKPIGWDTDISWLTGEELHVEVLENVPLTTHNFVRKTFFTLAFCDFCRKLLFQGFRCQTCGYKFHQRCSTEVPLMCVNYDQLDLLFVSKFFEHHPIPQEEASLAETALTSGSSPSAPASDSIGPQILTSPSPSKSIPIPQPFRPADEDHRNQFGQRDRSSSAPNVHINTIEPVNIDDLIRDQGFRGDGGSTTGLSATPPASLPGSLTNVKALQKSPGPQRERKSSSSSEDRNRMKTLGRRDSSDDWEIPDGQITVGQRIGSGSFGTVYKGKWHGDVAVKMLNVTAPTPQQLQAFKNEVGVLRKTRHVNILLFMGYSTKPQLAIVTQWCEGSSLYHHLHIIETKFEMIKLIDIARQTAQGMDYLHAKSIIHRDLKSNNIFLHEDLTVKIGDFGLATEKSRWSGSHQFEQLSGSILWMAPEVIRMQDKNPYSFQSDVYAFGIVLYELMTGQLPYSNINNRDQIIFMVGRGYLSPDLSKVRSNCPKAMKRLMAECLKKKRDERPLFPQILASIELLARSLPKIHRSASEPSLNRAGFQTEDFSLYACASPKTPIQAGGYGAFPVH
T1 sequence (Q96SW2 whole entry): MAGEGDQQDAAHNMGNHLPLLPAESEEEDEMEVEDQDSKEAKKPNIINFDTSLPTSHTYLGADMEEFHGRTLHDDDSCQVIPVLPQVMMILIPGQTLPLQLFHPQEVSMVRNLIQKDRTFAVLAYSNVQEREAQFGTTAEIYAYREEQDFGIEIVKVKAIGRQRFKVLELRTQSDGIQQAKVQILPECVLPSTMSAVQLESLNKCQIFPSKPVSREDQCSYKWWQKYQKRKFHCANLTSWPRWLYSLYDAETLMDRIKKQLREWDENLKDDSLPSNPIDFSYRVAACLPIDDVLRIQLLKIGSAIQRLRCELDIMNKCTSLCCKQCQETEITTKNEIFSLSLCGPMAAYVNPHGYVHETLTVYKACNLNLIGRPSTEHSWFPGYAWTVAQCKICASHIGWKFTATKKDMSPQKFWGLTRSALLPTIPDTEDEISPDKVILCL
T1 sequence (Q16531 whole entry partner): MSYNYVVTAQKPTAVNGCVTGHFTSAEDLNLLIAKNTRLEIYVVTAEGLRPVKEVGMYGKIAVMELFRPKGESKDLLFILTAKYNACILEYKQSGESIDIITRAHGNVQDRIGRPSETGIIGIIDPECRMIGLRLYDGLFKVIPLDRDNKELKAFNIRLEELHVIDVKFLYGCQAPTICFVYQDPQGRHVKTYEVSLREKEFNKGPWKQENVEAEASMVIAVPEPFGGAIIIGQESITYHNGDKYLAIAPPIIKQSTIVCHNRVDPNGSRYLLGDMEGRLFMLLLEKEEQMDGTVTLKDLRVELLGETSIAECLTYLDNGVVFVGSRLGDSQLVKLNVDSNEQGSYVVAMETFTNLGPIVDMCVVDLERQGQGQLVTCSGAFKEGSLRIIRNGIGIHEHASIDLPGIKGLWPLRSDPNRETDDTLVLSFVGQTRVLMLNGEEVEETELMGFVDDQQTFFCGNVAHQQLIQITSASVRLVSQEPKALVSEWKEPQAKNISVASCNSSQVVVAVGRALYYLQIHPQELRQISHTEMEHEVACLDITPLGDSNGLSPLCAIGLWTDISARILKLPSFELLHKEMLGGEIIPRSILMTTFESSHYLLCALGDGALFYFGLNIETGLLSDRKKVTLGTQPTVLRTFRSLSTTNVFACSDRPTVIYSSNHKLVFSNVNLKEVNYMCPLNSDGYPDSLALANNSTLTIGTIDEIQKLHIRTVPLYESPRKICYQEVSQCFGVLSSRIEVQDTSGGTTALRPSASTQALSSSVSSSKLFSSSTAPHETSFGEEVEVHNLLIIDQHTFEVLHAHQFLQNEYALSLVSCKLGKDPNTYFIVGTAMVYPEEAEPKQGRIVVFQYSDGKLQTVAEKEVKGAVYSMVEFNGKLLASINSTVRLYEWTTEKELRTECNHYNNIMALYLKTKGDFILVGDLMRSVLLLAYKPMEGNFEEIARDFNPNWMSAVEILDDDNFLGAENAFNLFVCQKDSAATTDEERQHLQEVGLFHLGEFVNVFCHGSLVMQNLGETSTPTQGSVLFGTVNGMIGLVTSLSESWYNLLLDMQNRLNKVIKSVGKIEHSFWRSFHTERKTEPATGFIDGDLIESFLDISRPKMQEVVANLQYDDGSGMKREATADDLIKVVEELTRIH

`CCN(C)S(=O)(=O)Nc1ccc(F)c(C(=O)c2ccc3ncn(C4CC5(CCN(C6CCC(c7cc8c(cc7F)c(N7CCC(=O)NC7=O)nn8C)CC6)CC5)C4)c(=O)c3c2)c1F` (single isomer, unassigned) [Compound 183, 3-[7-[4-[3-(2,4-dioxohexahydropyrimidin-1-yl)-5-fluoro-1-methyl-indazol-6-yl]cyclohexyl]-7-azaspiro[3.5]nonan-2-yl]-6-[3-[[ethyl(methyl)sulfamoyl]amino]-2,6-difluoro-benzoyl]-4-oxo-quinazoline]: the DC50 at BRAF V600E (setting [1]) and at BRAF V600E (setting [2]) was less than 1 µM each time. Further, the “HiBiT-Degradation A375.10 BRAF 2 hours Emax” value on BRAF V600E (residual protein remaining) is “*** (<=50%)”. Also, the GI50 (commonly the concentration at which growth is held to half of that of the control) in the assay on A375-NRAS^Q61K cells is 1 to 10 µM. For the same compound, the “CTGlo A375.11 96 hours Emax” value in the assay on A375-NRAS^Q61K cells (lowest % viability achieved) is “** (<90% and >50%)”.

Turning to `CCN(C)S(=O)(=O)Nc1ccc(F)c(Oc2ccc3ncn(C4CC5(CCC(N6CC[C@H](c7cc8c(cc7F)c(N7CCC(=O)NC7=O)nn8C)C(F)(F)C6)CC5)C4)c(=O)c3c2)c1C#N` (stereo partly drawn) [Compound 224, 6-[2-cyano-3-[[ethyl(methyl)sulfamoyl]amino]-6-fluoro-phenoxy]-3-[7-[(4R)-4-[3-(2,4-dioxohexahydropyrimidin-1-yl)-5-fluoro-1-methyl-indazol-6-yl]-3,3-difluoro-1-piperidyl]spiro[3.5]nonan-2-yl]-4-oxo-quinazoline], the DC50 at BRAF V600E (setting [1]) and on BRAF V600E (setting [2]) was less than 1 µM in each case. In addition, the Emax at BRAF V600E (residual protein remaining, read-out: HiBiT-Degradation A375.10 BRAF 2 hours Emax) is less than 50%; in the assay with A375-NRAS^Q61K cells (Homo sapiens, 96 h, lowest % viability achieved), 50 to 90%. In the assay on A375-NRAS^Q61K cells (Homo sapiens, 96 h), this compound came in with a GI50 of less than 1 µM.
